Measured values published in EP2102204B1, “NEW AMINOPYRROLO[1,2- A]INDOLE ET AMINOPYRIDAZINO[1,6-A]INDOLE DERIVATIVES, METHOD FOR PREPARING THE SAME AND PHARMACEUTICAL COMPOSITIONS CONTAINING THE SAME” (Les Laboratoires Servier, priority 2007, dated 2008).

What was measured:
[1] = Prediction of metabolic stability on liver microsomes; type: in vitro ADME; settings: 10^-7 M, 0,33 mg prot/ml, NADPH, 0-60 minutes
Method: La prédiction de stabilité métabolique est testée par incubation des dérivés à la concentration de 10^-7 M en présence de microsomes hépatiques de souris, rat ou d'homme (0,33 mg prot/ml). Après addition de NADPH (nicotinamide adénine dinucléotide phosphate, forme réduite), des prélèvements sont réalisés à 0, 5, 15, 30 et 60 minutes. La réaction enzymatique est arrêtée avec le méthanol (VN). La protéine est précipitée par centrifugation et le surnageant analysé par LC-MS-MS. La bonne stabilité métabolique de ces dérivés permet d'envisager un traitement per os. TABLEAU III

[2] = system: protéine tyrosine hydroxylase (TH); assay: Induction of tyrosine hydroxylase in the locus coeruleus of mice (immunodetection and image analysis of brain sections); type: in vivo, souris Balb/C; settings: i.p. 20 mg/kg, single injection, 3 days after, % par rapport à la valeur moyenne du groupe témoin; for quantité de TH au niveau du LC, coupe 1: coupe 1 du LC (sens antérieur vers postérieur); for quantité de TH au niveau du LC, coupe 2: coupe 2 du LC (sens antérieur vers postérieur); for quantité de TH au niveau du LC, coupe 3: coupe 3 du LC (sens antérieur vers postérieur); for quantité de TH au niveau du LC, coupe 4: coupe 4 du LC (sens antérieur vers postérieur); for quantité de TH au niveau du LC, coupe 5: coupe 5 du LC (sens antérieur vers postérieur); for quantité de TH au niveau du LC, coupe 6: coupe 6 du LC (sens antérieur vers postérieur); for quantité de TH au niveau du LC, coupe 7: coupe 7 du LC (sens antérieur vers postérieur); for quantité de TH au niveau du LC, coupe 8: coupe 8 du LC (sens antérieur vers postérieur)
Excerpt: Il est recherché, parmi les dérivés, ceux qui sont capables d'induire une augmentation de la protéine tyrosine hydroxylase (TH) dans le cerveau de la souris Balb/C, au niveau du locus coeruleus (LC).
Les animaux utilisés sont des souris mâles de la lignée pure Balb/C (Charles River Laboratories), âgées de 7 à 8 semaines au moment du traitement.
Les souris reçoivent une injection unique par voie intrapéritonéale du composé à tester, dissous dans une solution d'HCl 0,04 M (contrôle correspondant : HCl […]) si le composé est suffisamment soluble, ou dans l'huile d'olive 90 % / DMSO 10 % (contrôle correspondant : huile d'olive 90 % / DMSO 10 %) pour les composés insolubles en milieu aqueux.
Trois jours après l'injection de chaque molécule, tous les animaux sont sacrifiés par décapitation. Les cerveaux extraits sont ensuite congelés dans de l'azote liquide et conservés à -80° C.
Des coupes coronales de 8 microns d'épaisseur sont pratiquées le long de l'axe postéro-antérieur du LC et fixées. Les coupes sont transférées sur membranes Immobilon-P. La TH est mesurée par immunodétection et analyse d'image.

récepteurs sigma (σ) = assay: Receptor affinity, displacement of labelled specific ligand (haloperidol); type: binding
Excerpt: (§1) L'affinité pour les récepteurs est déterminée selon les méthodes habituelles de relation entre le ligand spécifique et le récepteur, qui peut être d'origine animale ou un recombinant humain. Elle a été déterminée par la méthode du déplacement du ligand spécifique marqué par le composé étudié, et exprimée par la constante de dissociation Ki. L'affinité réceptorielle pour 28 récepteurs classiques a ainsi été étudiée. L'étude montre que l'induction de TH observée ne passe pas par une affinité vis-à-vis des récepteurs habituellement touchés par les produits psychotropes, comme les récepteurs adrénergiques alpha (de type α2), 5HT (de type 5HT2A), dopaminergiques (de type D1 et D2). Quelques dérivés montrent une affinité non négligeable pour les récepteurs sigma (σ) (ligand halopéridol) ou muscarinique (M). TABLEAU II

D1 = D1 (Homo sapiens, UniProt P21728); assay: Receptor affinity, displacement of labelled specific ligand; type: binding; settings: concentration 10^-5 M; read-out: % d'inhibition D1
Excerpt: as §1

5HT2A = 5HT2A (Homo sapiens, UniProt P28223); assay: as above; type: binding; settings: concentration 10^-5 M; read-out: % d'inhibition 5HT2A
Excerpt: as §1

Chain of D1 (P21728 whole entry): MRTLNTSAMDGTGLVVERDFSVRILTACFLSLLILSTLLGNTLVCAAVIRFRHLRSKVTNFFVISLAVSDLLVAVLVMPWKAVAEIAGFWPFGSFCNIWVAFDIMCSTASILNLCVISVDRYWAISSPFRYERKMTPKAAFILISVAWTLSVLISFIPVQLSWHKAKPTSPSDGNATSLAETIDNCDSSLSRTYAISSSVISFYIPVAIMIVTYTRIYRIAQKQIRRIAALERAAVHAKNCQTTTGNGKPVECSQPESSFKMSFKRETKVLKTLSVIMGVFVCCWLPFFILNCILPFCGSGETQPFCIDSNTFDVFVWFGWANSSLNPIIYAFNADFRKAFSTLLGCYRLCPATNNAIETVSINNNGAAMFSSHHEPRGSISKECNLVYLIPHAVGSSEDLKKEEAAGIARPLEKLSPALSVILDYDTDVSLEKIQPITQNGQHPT
Chain of 5HT2A (P28223 whole entry, species assumed): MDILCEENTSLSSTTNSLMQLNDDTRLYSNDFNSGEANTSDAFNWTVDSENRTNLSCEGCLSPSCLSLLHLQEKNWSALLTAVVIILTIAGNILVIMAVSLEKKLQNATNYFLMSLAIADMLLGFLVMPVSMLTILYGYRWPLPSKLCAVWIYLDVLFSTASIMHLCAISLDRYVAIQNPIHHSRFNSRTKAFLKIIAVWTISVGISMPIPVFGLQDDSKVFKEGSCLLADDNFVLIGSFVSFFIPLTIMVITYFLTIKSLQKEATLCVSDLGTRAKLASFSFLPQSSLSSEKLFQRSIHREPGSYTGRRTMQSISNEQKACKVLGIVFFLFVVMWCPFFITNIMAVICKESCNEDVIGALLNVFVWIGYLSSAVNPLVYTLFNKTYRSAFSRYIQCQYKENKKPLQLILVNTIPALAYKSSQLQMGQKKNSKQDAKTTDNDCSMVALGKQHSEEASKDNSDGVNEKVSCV

In the case of O=C1NN2c3ccccc3C[C@H]2[C@@H]2NCCC[C@H]12 (racemic) [Exemple 8, (4aSR,11aSR, 11bRS)-1,2,3,4,4a,11,11a,11b-Octahydro-1,6,6a-triazabenzo[a]fluorén-5-one], the “% de prédiction de stabilité métabolique sur microsomes hépatiques” value ([1]; Homme) is reported as 80%, the “% de prédiction de stabilité métabolique sur microsomes hépatiques” value ([1]; Rat) is reported as 52% and the “% de prédiction de stabilité métabolique sur microsomes hépatiques” value ([1]; Souris) is reported as 86%. The “quantité de TH au niveau du LC, coupe 1” value [2] was 59%, the “quantité de TH au niveau du LC, coupe 2” value [2] was 61% and the “quantité de TH au niveau du LC, coupe 3” value [2] was 59%. For the same molecule, the “quantité de TH au niveau du LC, coupe 4” value [2] was 50%, the “quantité de TH au niveau du LC, coupe 5” value [2] was 33% and the “quantité de TH au niveau du LC, coupe 6” value [2] was 17%. For the same molecule, the “quantité de TH au niveau du LC, coupe 7” value [2] was 9% and the “quantité de TH au niveau du LC, coupe 8” value [2] was 5%.

With C=CCN1CCC[C@@H]2C(=O)N3c4ccc(OC)cc4C[C@@H]3[C@H]21 (racemic) [Exemple 19, (4aSR,11aRS,11bSR)-1-Allyl-9-méthoxy-1,2,3,4,4a,11,11a,11b-octahydro-pyrido[2',3':3,4]pyrrolo[1,2-a]indol-5-one] the “% d'inhibition σ” value (récepteurs sigma (σ); concentration 10^-5 M) was 36%, the “% d'inhibition σ” value (récepteurs sigma (σ); concentration 10^-7 M) was 10% and the “quantité de TH au niveau du LC, coupe 1” value [2] was 49%. For the same molecule, the “quantité de TH au niveau du LC, coupe 2” value [2] was 48%, the “quantité de TH au niveau du LC, coupe 3” value [2] was 55% and the “quantité de TH au niveau du LC, coupe 4” value [2] was 50%. The “quantité de TH au niveau du LC, coupe 5” value [2] was 21%, the “quantité de TH au niveau du LC, coupe 6” value [2] was 15% and the “quantité de TH au niveau du LC, coupe 7” value [2] was 6%. For the same molecule, the “quantité de TH au niveau du LC, coupe 8” value [2] was 9%.

With O=C1[C@H]2CCCN[C@@H]2[C@H]2Cc3ccccc3N12 (racemic) [Exemple 47, (4aSR,11aRS,11bSR)-1,2,3,4,4a,11,11a,11b-Octahydropyrido [2',3':3,4]pyrrolo[1,2-a]indol-5-one] the “% de prédiction de stabilité métabolique sur microsomes hépatiques” value ([1]; Homme) was 86%, the “% de prédiction de stabilité métabolique sur microsomes hépatiques” value ([1]; Rat) was 85% and the “% de prédiction de stabilité métabolique sur microsomes hépatiques” value ([1]; Souris) was 99%.

In the case of CN1CCC[C@@H]2C(=O)N3c4ccccc4C[C@H]3[C@@H]21 [Exemple 3, (4aSR, 11aSR, 11bRS)-1-Méthyl 1,2,3,4,4a,11,11a,11b-octahydropyrido[2'3':3,4]pyrrolo[1,2-a]indol-5-one], the “% de prédiction de stabilité métabolique sur microsomes hépatiques” value ([1]; Homme) is reported as 59%, the “% de prédiction de stabilité métabolique sur microsomes hépatiques” value ([1]; Rat) is reported as 31% and the “% de prédiction de stabilité métabolique sur microsomes hépatiques” value ([1]; Souris) is reported as 61%. The inhibition at 10 µM (D1) was 39%, the inhibition at 10 µM (5HT2A) was 84% and the “quantité de TH au niveau du LC, coupe 1” value [2] was 104%. For the same molecule, the “quantité de TH au niveau du LC, coupe 2” value [2] was 97%, the “quantité de TH au niveau du LC, coupe 3” value [2] was 69% and the “quantité de TH au niveau du LC, coupe 4” value [2] was 58%. The “quantité de TH au niveau du LC, coupe 5” value [2] was 49%, the “quantité de TH au niveau du LC, coupe 6” value [2] was 31% and the “quantité de TH au niveau du LC, coupe 7” value [2] was 10%. The “quantité de TH au niveau du LC, coupe 8” value [2] was 8%.

For C=CCN1CCC[C@H]2C(=O)N3c4ccccc4C[C@H]3[C@@H]21 [Exemple 44, (4aR,11aS,11bR)-1-allyl-1,2,3,4a,11,11a,11b-octahydropyrido[2':3':3.4]pyrrolo[1,2-a]indol-5-one], the “quantité de TH au niveau du LC, coupe 1” value [2] was 83%, the “quantité de TH au niveau du LC, coupe 2” value [2] was 99% and the “quantité de TH au niveau du LC, coupe 3” value [2] was 78%. The “quantité de TH au niveau du LC, coupe 4” value [2] was 58%, the “quantité de TH au niveau du LC, coupe 5” value [2] was 38% and the “quantité de TH au niveau du LC, coupe 6” value [2] was 29%. For the same molecule, the “quantité de TH au niveau du LC, coupe 7” value [2] was 18% and the “quantité de TH au niveau du LC, coupe 8” value [2] was 3%.

For CN1CCC[C@H]2C(=O)N3c4ccccc4C[C@@H]3[C@H]21 [Exemple 52, (4aR,11aR,11bS)-1-méthyl-1,2,3,4,4a,11,11a,11b-octahydropyrido[2'3':3,4]pyrrolo[1,2-a]indol-5-one], the “quantité de TH au niveau du LC, coupe 1” value [2] was 69%, the “quantité de TH au niveau du LC, coupe 2” value [2] was 86% and the “quantité de TH au niveau du LC, coupe 3” value [2] was 79%. The “quantité de TH au niveau du LC, coupe 4” value [2] was 77%, the “quantité de TH au niveau du LC, coupe 5” value [2] was 40% and the “quantité de TH au niveau du LC, coupe 6” value [2] was 22%. The “quantité de TH au niveau du LC, coupe 7” value [2] was 12% and the “quantité de TH au niveau du LC, coupe 8” value [2] was 1%.
